From paper PMC5929447 (Oncotarget, 2018)

Key:
BCL-2/BAX complex = BCL-2/BAX complex (Homo sapiens, UniProt P10415); experiment: Co-immunoprecipitation in RS4;11 cells; format: cell-based; details: 2 h, increasing concentrations
[1] = Body weight in Toledo-bearing mice; format: in vivo; details: doses up to 300 mg/kg, oral five times a week for 3 weeks
Description: (§1) For each experiment, female SCID/beige mice were implanted subcutaneously (right axillary region) with 3 × 10^6 Toledo or RS4;11 (1 × 10^6 cells for efficacy studies and 1 × 10^7 cells for pharmacodynamics studies) suspended in 1:1 mixture of cold DPBS and Matrigel™ in a total volume of 100 μl. Body weights were recorded and tumors were measured with digital calipers twice to three times a week. Tumor volume was calculated using the formula: length × width^2/2. Percent changes in body weights was calculated as (BWcurrent - BWinitial)/(BWinitial) × 100. Data is presented as percent body weight change from the day of treatment initiation.

[2] = test system: BCL-2-dependent FL5.12 cells; experiment: Apoptosis (annexin V/PI) in FL5.12 cells expressing BCL-2 upon IL-3 withdrawal; format: cell-based, murine; details: 24 h upon IL-3 withdrawal
[3] = test system: Mantle Cell Lymphoma cell lines; experiment: CellTiter-Glo viability, MCL cell line panel; format: cell-based; details: 72 h; two MCL cell lines out of five tested
Description: (§2) Cells were seeded into 96-well plates and treated at 8 points with 1:2 serial dilution of compounds. Cell viability was assessed and assayed for viability using CellTiter-Glo reagent (Promega) following the manufacturer's instructions. Plates were read using Tecan luminescence plate reader. Results were normalized to the viability of cells without compounds (control wells). The IC50 values were calculated using nonlinear regression algorithms in XCell software.

H146 cell line = experiment: CellTiter-Glo cell viability, H146; format: cell-based; details: Homo sapiens, NCI-H146; 72 h of treatment
Description: as §2

BCL-XL = BCL-XL (Homo sapiens, UniProt Q07817); experiment: Isothermal titration calorimetry (ITC), BCL-XL; format: binding; details: 25 °C; read-out: ITC_BCL-XL_KD
BCL-XL, sequence (Q07817 whole entry): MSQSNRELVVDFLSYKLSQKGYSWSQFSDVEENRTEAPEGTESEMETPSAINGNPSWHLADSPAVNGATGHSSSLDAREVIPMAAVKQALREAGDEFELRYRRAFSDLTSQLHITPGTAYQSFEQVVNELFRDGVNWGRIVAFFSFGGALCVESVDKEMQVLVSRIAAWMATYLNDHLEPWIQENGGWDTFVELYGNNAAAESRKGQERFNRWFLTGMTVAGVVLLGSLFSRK
Description: The protein was dialyzed prior to use in 2 L of 25 mM HEPES, 150 mM NaCl, 5% glycerol (v/v), 0.5% MTG (v/v) at pH 7.4 for 3 hours at room temperature. The protein was dialyzed using a 3.5 K MWCO Slide-A-Lyzer™ cassette. The protein solution was recovered, spin-filtered through a […] frit. The filtered protein was quantified by UV absorbance at 280 nm using an extinction coefficient of 36440 M^-1cm^-1. 500 ml of dialysis buffer was retained (remainder used to rinse out SCHOT bottle) and degassed for a minimum of 30 mins under vacuum with constant stirring. […] The solutions were carefully matched to ensure same solvent and buffer conditions were present in both syringe and cell (this is to minimize heat of dilution effects). The final solution was the dialysis buffer plus 1% DMSO and 0.05% P20. The experiment was performed over 13 injections with stirring at 1000 rpm, gain setting low and at 25° C. Pure water was used in the reference cell. The first injection was 0.5 μl with a duration of 1 second with a gap of 150 seconds until the further 12 injections of 3.05 μl with a duration 6.1 seconds and a 240 second interval between injections. Data was analyzed using the vendor supplied software, PEAQ-ITC Analysis Software. The data model used was the single site model. The data shown is the average of 2 or 3 independent experiments.

Toledo xenograft = Toledo xenograft efficacy; format: in vivo, mice; details: day 21; for Mean TV change: mean ± s.e.m.
Description: Experiments were performed in SCID/beige female mice from Charles River Laboratories, Massachusetts, USA. Animals, approximately 7-8 weeks of age at the start of the treatment were allowed to acclimate in animal facility with access to food and water ad libitum for 3 days prior to manipulation. Animals were handled in accordance with IACUC regulations and guidelines for experiments performed in the USA and with European and French regulation for the protection of vertebrate animals for experiments performed in France. Animal well-being and behavior, including grooming and ambulation were monitored at least once a day. General health of mice was monitored and mortality recorded daily. Any moribund animals were sacrificed.
RS4;11 Acute Lymphoblastic Leukemia cell lines was obtained from ATCC. Toledo (Diffuse Large B-Cell Lymphoma) human cell lines were obtained internally through Bioresources and the Novartis-Cancer Cell Line Encyclopedia. Cells were free of Mycoplasma and murine viral contamination in the IMPACT VIII PCR assay panel (IDEXX RADIL, IDEXX laboratories INC, Westbrook, ME, USA). Cells used for subcutaneous implantation were cultured in RPMI plus 10% FBS at 37° C in a humidified atmosphere containing 5% carbon dioxide). […] Cells were resuspended in a 1:1 mixture of cold DPBS (Dulbecco's Phosphate-Buffered Saline) and Matrigel™ (Becton-Dickinson #354234) at a concentration of 3 × 10^7 cells/ml for Toledo cells, and of 1 × 10^7 cells/ml for RS4;11 cells.
as §1
When tumors reached approximately 200 mm^3 for efficacy studies or 300 mm^3 for pharmacodynamic studies, mice were randomized. […] Mice were treated via oral gavage at 10 ml/kg with the doses and schedules described in the figure.
For efficacy studies, percent treatment/control (T/C) values were calculated using the following formula: %T/C = 100 × ΔT/ΔC if ΔT > 0. Regression = 100 × ΔT/Tinitial if ΔT < 0 where: T = mean tumor burden of the drug-treated group on the final day of the study; ΔT = mean tumor burden of the drug-treated group on the final day of the study – mean tumor burden of the drug-treated group on initial day of dosing; Tinitial = mean tumor burden of the drug-treated group on initial day of dosing; C = mean tumor burden of the control group on the final day of the study; and ΔC = mean tumor burden of the control group on the final day of the study – mean tumor burden of the control group on initial day of dosing. If the tumor volume was less than 14 mm^3 for more than 3 consecutive measurements, animals were considered in complete regression (CR).

[4] = 200 mg/kg oral five times a week for 3 weeks
[5] = 300 mg/kg oral five times a week for 3 weeks

BCL-2/BAX complex, sequence (P10415 whole entry, one chain of several): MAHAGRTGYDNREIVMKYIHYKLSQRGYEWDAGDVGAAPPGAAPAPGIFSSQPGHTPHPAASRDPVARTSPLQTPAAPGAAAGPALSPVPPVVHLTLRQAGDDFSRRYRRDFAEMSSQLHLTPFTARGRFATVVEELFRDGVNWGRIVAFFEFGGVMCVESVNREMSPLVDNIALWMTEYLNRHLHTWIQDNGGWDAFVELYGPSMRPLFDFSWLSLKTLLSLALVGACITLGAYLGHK

IC50 [3]: < 1000 nM
IC50 (H146 cell line): 1700 nM
Kd (BCL-XL): 186 nM
SMILES: O=C(c1cc(-c2cc3c(cc2C(=O)N2Cc4ccccc4C[C@H]2CN2CCOCC2)OCO3)n2c1CCCC2)N(c1ccccc1)c1ccc(O)cc1 [S55746]
disruption of the BCL-2/BAX complex in RS4;11 cells (BCL-2/BAX complex): concentration-dependent disruption of the BCL-2/BAX complex
body weight compared to the vehicle control group [1]: did not significantly differ
apoptosis induction (PS+ cells) in BCL-2-dependent FL5.12 cells [2]: strongly induce apoptosis
% T/C (Toledo xenograft; [4]): 13 % T/C
Mean TV change (Toledo xenograft; [4]): 239.03 ± 67.97 mm3
% T/C (Toledo xenograft; [5]): 2 % T/C
Mean TV change (Toledo xenograft; [5]): 33.16 ± 37.38 mm3
